Data as given in patent publication US4985595A, “Aminobenzamide derivatives” (Daiichi Pharmaceutical Co., Ltd., priority 1984, dated 1991).
Where two headings read alike, the source gives them in different places.

Columns and labels:
[1] = system: stress ulcer in rat; assay: Inhibitory effect on stress ulcer in rat (restraint and water-immersion stress method); format: in vivo; conditions: read-out: Inhibitory Effect (%)
Protocol: INHIBITORY EFFECT ON STRESS ULCER IN RAT
The compounds of this invention were administered orally to 7 rats weighing about 300 g in each group. After 30 minutes, they were immobilized and immersed in water at 21° C. for 7 hours to prepare the stress ulcer.

[2] = in vivo; conditions: mouse, po, mice, orally administered, read-out: acute toxicity (LD50)
[3] = disclosed in Japanese Patent Application (OPI) No. 18947/81; cited from earlier work
[4] = 50 mg/kg, oral, rat, 30 minutes before immobilization and immersion in water at 21° C. for 7 hours, *P < 0.05, **P < 0.01
[5] = 100 mg/kg, oral, rat, 30 minutes before immobilization and immersion in water at 21° C. for 7 hours, *P < 0.05, **P < 0.01
[6] = 200 mg/kg, oral, rat, 30 minutes before immobilization and immersion in water at 21° C. for 7 hours, *P < 0.05, **P < 0.01

Structure (SMILES)	inhibition in vivo at 50 mg/kg [1, 4] [%]	inhibition in vivo at 100 mg/kg [1, 5] [%]	inhibition in vivo at 200 mg/kg [1, 6] [%]	inhibition in vivo at 50 mg/kg ([1]; Rattus norvegicus, po, 7 h) [%]	inhibition in vivo at 100 mg/kg ([1]; Rattus norvegicus, po, 7 h) [%]	inhibition in vivo at 200 mg/kg ([1]; Rattus norvegicus, po, 7 h) [%]	LD50 [2] [mg/kg]	chemical and physical properties (stability) [3]
COc1ccc(CCNC(=O)CNc2cccc(C(=O)N3CCOCC3)c2)cc1OC [Compound f, N(2-(3,4-Dimethoxyphenyl)ethyl)-2-((3-morpholinocarbonylphenyl)amino)acetmide]	10	53	86					
CCNC(=O)c1cccc(NCC(=O)NCCc2ccc(OC)c(OC)c2)c1 [Compound b, 3-((2-((2-(3,4-dimethoxyphenyl)ethyl)amino)-2-oxoethyl)amino)-N-ethylbenzamide]	30	53	63					
COc1ccc(CCNC(=O)CN(CS(=O)(=O)[O-])c2cccc(C(N)=O)c2)cc1OC.[Na+]				34	36	42	> 2000	
CNC(=O)c1cc(OC)ccc1NCC(=O)NCCc1ccc(OC)c(OC)c1 [Compound g]	45	41	65					
CNC(=O)c1ccc(OC)cc1NCC(=O)NCCc1ccc(OC)c(OC)c1 [Compound c, 2-((2-((2-(3,4-dimethoxyphenyl)ethyl)amino)-2-oxoethyl)amino)-4-methoxy-N-methylbenzamide]	33	36	69				> 2000	
COc1ccc(CCNC(=O)CNc2cccc(C(N)=O)c2)cc1OC.O.O.O [Control, 2-(3-carbamoylphenylamino)-N-(3,4-dimethoxyphenethyl)acetamide trihydrate]								stable chemical and physical properties
CNC(=O)c1cccc(NCC(=O)NCCc2ccc(OC)c(OC)c2)c1 [Compound a]	46	60	72					
COc1ccc(CCNC(=O)CNc2cccc(C(=O)N(C)C)c2)cc1OC [Compound e, 3((2-((2-(3,4-Dimethoxyphenyl)ethyl)amino)-2-oxoethyl)amino)-N,N-dimethylenzamide]	39	55	64					
